Laboratory results taken from ChEMBL document CHEMBL5365493 (J Med Chem, 2023).
The source made the active and inactive calls. The rule behind the calls is not given here.

Legend:
[1] = target: T1, Dipeptidyl peptidase 9 (Homo sapiens, UniProt Q86TI2); test: Inhibition of N-terminal human recombinant DPP9 expressed in Sf9 insect cells using Ala-Pro-paranitroanilide as substrate incubated for 15 mins by […]
[2] = target: T2, Dipeptidyl peptidase 8 (Homo sapiens, UniProt Q6V1X1); test: Inhibition of N-terminal human recombinant DPP8 expressed in Sf9 insect cells using Ala-Pro-paranitroanilide as substrate incubated for 15 mins by […]
[3] = target: T3, Dipeptidyl peptidase 4 (Homo sapiens, UniProt P27487); test: Inhibition of human seminal plasma DPP4 using Ala-Pro-paranitroanilide as substrate incubated for 15 mins by […]; assay type: cell-free
[4] = target: T4, Dipeptidyl peptidase 2 (Homo sapiens, UniProt Q9UHL4); test: Inhibition of human recombinant DPP2 using Lys-Ala-pNA as substrate incubated for 15 mins by […]
[5] = target: T5, Prolyl endopeptidase (Homo sapiens, UniProt P48147); test: Inhibition of human recombinant PREP expressed in Escherichia coli BL21(DE3) using N-succinyl-Gly-Pro-AMC as substrate incubated for 15 mins by fluorescence based analysis
T5 sequence (P48147 whole entry): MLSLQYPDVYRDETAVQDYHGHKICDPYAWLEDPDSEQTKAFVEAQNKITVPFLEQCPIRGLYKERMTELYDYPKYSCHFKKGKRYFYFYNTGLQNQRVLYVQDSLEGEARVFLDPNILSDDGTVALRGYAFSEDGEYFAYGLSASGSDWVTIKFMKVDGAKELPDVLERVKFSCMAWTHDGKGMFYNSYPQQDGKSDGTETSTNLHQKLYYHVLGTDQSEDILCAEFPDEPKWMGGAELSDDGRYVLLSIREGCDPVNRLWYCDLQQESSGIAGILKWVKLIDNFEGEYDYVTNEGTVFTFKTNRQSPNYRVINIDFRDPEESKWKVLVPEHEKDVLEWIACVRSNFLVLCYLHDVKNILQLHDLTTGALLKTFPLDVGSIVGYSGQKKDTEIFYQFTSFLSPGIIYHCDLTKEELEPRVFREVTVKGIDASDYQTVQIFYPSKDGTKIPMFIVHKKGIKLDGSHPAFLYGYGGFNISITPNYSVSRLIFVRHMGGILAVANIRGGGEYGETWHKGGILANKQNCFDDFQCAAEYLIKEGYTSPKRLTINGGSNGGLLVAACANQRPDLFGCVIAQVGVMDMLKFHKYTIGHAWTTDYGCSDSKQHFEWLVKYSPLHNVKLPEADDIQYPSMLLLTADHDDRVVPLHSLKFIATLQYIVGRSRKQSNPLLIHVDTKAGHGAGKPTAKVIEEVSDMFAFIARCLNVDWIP

[6] = Kinetic solubility of the compound in phosphate buffer at pH 7.4 at 200 uM incubated for 2 hrs by spectrophotometric analysis; assay type: physicochemical; settings: pH 7.4, 2 h
[7] = tested on: THP-1; test: Induction of cell death in human THP-1 cells assessed as increase in LDH release incubated for 24 hrs by CyQuant reagent based analysis; assay type: functional; settings: dose 1-10 µM
[8] = Clearance in Wistar rat at 5 mg/kg, iv administered as single dose measured upto 24 hrs by LC/MS-MS analysis; assay type: ADME, organism-based; settings: in vivo
[9] = Volume of distribution in Wistar rat at 5 mg/kg, iv administered as single dose measured upto 24 hrs by LC/MS-MS analysis; assay type: ADME, organism-based; settings: in vivo
[10] = Half life in Wistar rat at 5 mg/kg, iv administered as single dose measured upto 24 hrs by LC/MS-MS analysis; assay type: ADME, organism-based; settings: in vivo
[11] = AUC(0 to end) in Wistar rat at 5 mg/kg, iv administered as single dose measured upto 24 hrs by LC/MS-MS analysis; assay type: ADME, organism-based; design: time < 24 hrs, dose 5 mg/kg, route iv; settings: in vivo
[12] = AUC(0 to end) in Wistar rat at 20 mg/kg, po measured upto 24 hrs by LC/MS-MS analysis; assay type: ADME, organism-based; design: time < 24 hrs, dose 20 mg/kg, route po; settings: in vivo
[13] = Oral bioavailability in Wistar rat at 20 mg/kg measured upto 24 hrs by LC/MS-MS analysis; assay type: ADME, organism-based; settings: in vivo
[14] = Toxicity in Wistar rat assessed as adverse effects at 5 mg/kg, iv administered as single dose measured upto 24 hrs; assay type: organism-based; settings: in vivo
[15] = Toxicity in Wistar rat assessed as adverse effects at 20 mg/kg, po measured upto 24 hrs; assay type: organism-based; settings: in vivo
[16] = Toxicity in Wistar rat assessed as change in body weight at 5 mg/kg, iv administered as single dose measured upto 24 hrs; assay type: organism-based; settings: in vivo
[17] = Toxicity in Wistar rat assessed as change in body weight at 20 mg/kg, po measured upto 24 hrs; assay type: organism-based; settings: in vivo
[18] = target: T3, Dipeptidyl peptidase 4; test: Inhibition of DPP4 (unknown origin)
[19] = target: T4, Dipeptidyl peptidase 2; test: Inhibition of DPP2 (unknown origin)
[20] = target: T5, Prolyl endopeptidase; test: Inhibition of PREP (unknown origin)
[21] = Selectivity index, ratio of IC50 for DPP9 (unknown origin) to IC50 for DPP8 (unknown origin)
[22] = Selectivity index, ratio of IC50 for DPP9 (unknown origin) to IC50 for DPP4 (unknown origin)
[23] = target: T1, Dipeptidyl peptidase 9; test: Inhibition of DPP9 (unknown origin)
[24] = target: T2, Dipeptidyl peptidase 8; test: Inhibition of DPP8 (unknown origin)
[25] = tested on: HL-60; test: Induction of cell death in human HL-60 cells assessed as increase in LDH release at 10 uM incubated for 24 hrs by CyQuant reagent based analysis; assay type: functional
[26] = Selectivity index, ratio of Ki for DPP9 (unknown origin) to Ki for DPP8 (unknown origin)
[27] = target: T1, Dipeptidyl peptidase 9; test: Binding affinity to DPP9 (unknown origin) assessed as inhibition constant

T1 sequence (Q86TI2 whole entry): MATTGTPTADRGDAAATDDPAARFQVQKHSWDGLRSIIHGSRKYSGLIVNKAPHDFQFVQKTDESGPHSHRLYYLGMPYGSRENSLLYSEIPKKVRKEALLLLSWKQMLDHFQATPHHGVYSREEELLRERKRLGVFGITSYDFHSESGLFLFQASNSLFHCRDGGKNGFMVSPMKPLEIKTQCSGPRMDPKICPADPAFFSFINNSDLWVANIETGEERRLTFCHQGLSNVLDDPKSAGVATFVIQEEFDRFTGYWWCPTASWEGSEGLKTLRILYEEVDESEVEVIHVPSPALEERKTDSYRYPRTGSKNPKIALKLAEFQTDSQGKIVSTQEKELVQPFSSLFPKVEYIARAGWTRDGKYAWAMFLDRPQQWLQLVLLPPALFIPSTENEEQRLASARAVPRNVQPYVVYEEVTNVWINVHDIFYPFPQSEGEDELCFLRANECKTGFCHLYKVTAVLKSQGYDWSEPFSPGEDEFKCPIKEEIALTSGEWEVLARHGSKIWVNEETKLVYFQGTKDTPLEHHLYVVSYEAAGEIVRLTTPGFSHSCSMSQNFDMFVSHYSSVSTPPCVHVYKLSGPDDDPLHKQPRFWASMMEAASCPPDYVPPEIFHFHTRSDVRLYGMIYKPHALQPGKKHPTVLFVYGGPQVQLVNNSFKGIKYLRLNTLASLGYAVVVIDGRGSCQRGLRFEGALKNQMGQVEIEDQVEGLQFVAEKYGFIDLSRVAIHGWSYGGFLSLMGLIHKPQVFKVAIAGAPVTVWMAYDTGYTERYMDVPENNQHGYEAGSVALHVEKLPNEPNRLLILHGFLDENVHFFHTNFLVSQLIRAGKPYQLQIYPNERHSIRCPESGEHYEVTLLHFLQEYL
T3 sequence (P27487 whole entry): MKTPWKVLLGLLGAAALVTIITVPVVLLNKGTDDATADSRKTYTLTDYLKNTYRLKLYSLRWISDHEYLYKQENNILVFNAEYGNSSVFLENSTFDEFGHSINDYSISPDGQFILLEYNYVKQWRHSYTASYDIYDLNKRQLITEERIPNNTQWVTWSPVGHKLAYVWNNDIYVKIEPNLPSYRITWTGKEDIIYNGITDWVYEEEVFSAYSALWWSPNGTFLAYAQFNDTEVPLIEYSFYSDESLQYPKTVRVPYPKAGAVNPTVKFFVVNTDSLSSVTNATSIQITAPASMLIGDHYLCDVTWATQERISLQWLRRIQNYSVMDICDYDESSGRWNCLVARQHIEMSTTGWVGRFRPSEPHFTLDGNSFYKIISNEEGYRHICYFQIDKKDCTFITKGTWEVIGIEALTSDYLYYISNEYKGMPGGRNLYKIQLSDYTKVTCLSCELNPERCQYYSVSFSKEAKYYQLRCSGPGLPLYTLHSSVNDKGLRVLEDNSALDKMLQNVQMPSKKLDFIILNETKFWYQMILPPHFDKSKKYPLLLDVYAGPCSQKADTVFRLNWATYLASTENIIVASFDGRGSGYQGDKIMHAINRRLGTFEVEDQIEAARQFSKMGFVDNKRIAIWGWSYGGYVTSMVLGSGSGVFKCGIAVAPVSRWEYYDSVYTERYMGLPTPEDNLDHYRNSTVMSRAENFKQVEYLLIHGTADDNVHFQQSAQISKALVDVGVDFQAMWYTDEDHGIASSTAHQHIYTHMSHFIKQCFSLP
T2 sequence (Q6V1X1 whole entry): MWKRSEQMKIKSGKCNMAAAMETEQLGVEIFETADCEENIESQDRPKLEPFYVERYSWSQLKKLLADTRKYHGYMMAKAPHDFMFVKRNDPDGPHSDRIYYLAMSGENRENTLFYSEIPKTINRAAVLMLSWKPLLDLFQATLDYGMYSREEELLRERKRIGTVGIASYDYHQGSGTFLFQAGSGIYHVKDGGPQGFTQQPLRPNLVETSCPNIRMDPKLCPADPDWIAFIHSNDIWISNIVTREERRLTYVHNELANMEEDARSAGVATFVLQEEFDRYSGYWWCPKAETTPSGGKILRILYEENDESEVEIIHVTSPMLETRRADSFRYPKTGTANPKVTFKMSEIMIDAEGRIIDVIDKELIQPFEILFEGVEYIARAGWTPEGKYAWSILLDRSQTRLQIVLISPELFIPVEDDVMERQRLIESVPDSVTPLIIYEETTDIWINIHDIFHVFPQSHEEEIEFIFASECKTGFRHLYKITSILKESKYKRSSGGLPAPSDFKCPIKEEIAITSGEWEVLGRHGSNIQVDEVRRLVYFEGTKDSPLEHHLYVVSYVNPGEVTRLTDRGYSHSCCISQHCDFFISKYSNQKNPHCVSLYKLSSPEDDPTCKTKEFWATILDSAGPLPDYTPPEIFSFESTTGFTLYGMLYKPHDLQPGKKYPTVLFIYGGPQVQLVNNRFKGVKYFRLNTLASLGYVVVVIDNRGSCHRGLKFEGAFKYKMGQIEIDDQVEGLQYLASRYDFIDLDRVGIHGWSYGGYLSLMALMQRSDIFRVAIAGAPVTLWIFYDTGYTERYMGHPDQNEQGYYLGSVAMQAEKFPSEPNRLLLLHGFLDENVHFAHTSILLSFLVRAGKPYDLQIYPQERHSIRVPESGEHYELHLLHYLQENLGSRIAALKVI

IC50 [1] | IC50 [2] | IC50 [3] | IC50 [4] | IC50 [5] | SMILES | other results
0.003 µM | 0.6 µM | > 10 µM | > 5 µM | > 10 µM | CC(C)(C)OC(=O)NC12CC3CC(CC(NCC(=O)N4Cc5cc(F)c(F)cc5C4)(C3)C1)C2 | Kinetic_solubility [6]: Soluble; Activity [7]: Dose-Dependent Effect; clearance [8]: 90 mL/min/kg; Vd [9]: 7.1 L/kg; half-life [10]: 43.6 min; AUC at 24 h [11]: 1050 ng·h/mL; AUC at 24 h [12]: 63.4 ng·h/mL; bioavailability [13]: 2%; Activity [14]: Non-Toxic; Activity [15]: Non-Toxic; Activity [16]: Non-Toxic; Activity [17]: Non-Toxic
– | – | – | – | – | CCCCOC12CC3CC(CC(NCC(=O)N4Cc5ccccc5C4)(C3)C1)C2 | IC50 [18]: > 10 µM; IC50 [19]: > 5 µM; IC50 [20]: > 10 µM; Ratio IC50 [21]: 6.4; Ratio IC50 [22]: > 20.4
– | – | > 10 µM | > 5 µM | > 10 µM | CC(C)(C)NC(=O)NC12CC3CC(CC(NCC(=O)N4Cc5ccc(F)cc5C4)(C3)C1)C2 | Kinetic_solubility [6]: Soluble
– | – | – | – | – | N[C@H](C(=O)N1Cc2ccccc2C1)C1CCC(O)CC1 (stereo partly specified) | IC50 [18]: 3.5 µM; IC50 [23]: 0.001 µM; IC50 [24]: 0.024 µM; IC50 [19]: 3.1 µM; Ratio IC50 [21]: 27; Ratio IC50 [22]: 3890
– | – | – | – | – | N[C@@H](CC(=O)N1CCN(C(c2ccc(F)cc2)c2ccc(F)cc2)CC1)C(=O)N1Cc2ccccc2C1 | Activity [7]: Dose-Dependent Effect; Activity [25]: Active
1.8 µM | 6 µM | > 10 µM | > 5 µM | > 10 µM | CC(C)(C)OC(=O)N[C@@H](Cc1ccccc1)C(=O)NC12CC3CC(CC(NCC(=O)N4Cc5ccccc5C4)(C3)C1)C2 | –
– | – | – | – | – | CCC1(CC)C(=O)N(c2cccc(CN3CCN(Cc4cccc5ccccc45)CC3)c2)C1=O | Ratio Ki [26]: < 0.048; Ki [27]: > 2000 µM
0.33 µM | 2.1 µM | > 10 µM | > 5 µM | > 10 µM | CC(C)CCNC(=O)OC12CC3CC(CC(NCC(=O)N4Cc5ccccc5C4)(C3)C1)C2 | –
0.35 µM | 1.8 µM | > 10 µM | > 5 µM | > 10 µM | O=C(CNC12CC3CC(C1)CC(OC(=O)N1CCNCC1)(C3)C2)N1Cc2ccccc2C1 | –
0.91 µM | 6 µM | > 10 µM | > 5 µM | > 10 µM | NC12CC3CC(C1)CC(NCC(=O)N1Cc4ccccc4C1)(C3)C2 | –
> 10 µM | > 10 µM | > 10 µM | > 5 µM | > 10 µM | CC(C)[C@H](NC12CC3CC(CC(NC(=O)OC(C)(C)C)(C3)C1)C2)C(=O)N1Cc2ccccc2C1 | –
0.13 µM | 1.1 µM | > 10 µM | > 5 µM | > 10 µM | CCCCNC(=O)OC12CC3CC(CC(NCC(=O)N4Cc5ccccc5C4)(C3)C1)C2 | –
